For one data set, the system named is C26 tumor. In words: Tumor inhibition study, intratumoral injection. It counts as in vivo, Balb/c male mice. The protocol: (§1) The suspension of […] (1.0×10^6 cells/100 μl) was injected subcutaneously in the right flank of Balb/c male mice using 26 G needles. After 7 days tumor size reached 100-300 mm^3. The […] were randomly divided into three groups (n=3) and received following treatments. Group 1 mice were treated with an intratumoral injection of sterile PBS as control group; Group 2, mice received an intratumoral injection of Dox-HA hydrogel; Group 3, mice received an intratumoral injection of free Dox solution (4 mg/kg in 0.1 mL). The mice were weighed and tumor size was measured using a capliper for 10 days post intratumoral injection. The tumor volume (V) was calculated with the following formula V=[length×(width)^2]/2
On day 10, the mice were sacrificed and the tumor masses harvested, weighted, and photographed. Tumor inhibition rate was calculated using the equation. Tumor inhibition rate (%)=(Wc−Wt)/Wc where Wc is the weight of the tumor in the control group and Wt is the weight of the tumor in the test formulation group (L. Chen, X. Sha, X. Jiang, Y. Chen, Q. Ren, X. Fang, Pluronic P105/F127 mixed micelles for the delivery of docetaxel against Taxol-resistant non-small cell lung cancer: optimization and in vitro, in vivo evaluation, International journal of nanomedicine, 8 (2013) 73-84).
The in vivo antitumor efficacy of DHMF-15 hydrogel formulation was evaluated in the C26 tumor-bearing mice model. Mice were randomized into […] when the tumor size reached 100 mm^3. Three groups of mice received intratumoral injection of PBS, DHMF-15 hydrogel, free Dox solution, DMF-15 hydrogel, and DF-15 hydrogel respectively. […] PBS treatments had no substantial effect on C26 tumor growth, and the tumor volumes increased rapidly. After administration for 10 days, the average tumor volume in the PBS treated mice had reached over 1000 mm^3. […] Ranked from high to low inhibition efficacy, the formulations are ordered as follows: DHMF-15, free Dox solution, DMF-15, DF-15, PBS.

Data set [1] has as its system MCF-7 human breast cancer cells. In words: Cell viability, MTT assay. Format: cell-based. The settings on record: MCF7 cells, 24 h incubation. Here is the method:
(§2) C26 colon carcinoma cells and HT29 human colon cancer cells were cultured with RPMI-1640 with 10% fetal bovine serum and 10% penicillinstreptomycin. MCF-7 human breast cancer cells MEM were cultured with Eagle's MEM with 10% fetal bovine serum and 10% penicillinstreptomycin. Cells were seeded at a density of 5×10^4 cells per well in 24-well plates. After 24 hours of incubation at 37° C. with 5% CO2, the medium was replaced with new medium containing Dox formulation. After 24 hours incubation, cell survival was then measured using tetrazolium salt MTT assay. One hundred microliters of MTT (6 mg/mL) was added to each well for 4 hours. The medium was removed after […] incubation and then 200 μl DMSO was added to dissolve any purple formazan crystal formed. Remove the solvent was removed and dried in an oven at 50° C. for 2 hours. Cell viability was measured by ELISA reader and absorbance set at 520 nm.
(In general: Formazan colour is commonly taken as a measure of viable cells.)

Data set [2] concerns C26 colon carcinoma cells. In words: Cell viability, MTT assay. It counts as cell-based. Conditions: 24 h incubation. The protocol:
as §2

Data set [3] deals with HT29 human colon cancer cells. Put plainly: Cell viability, MTT assay. Format: cell-based. The settings on record: 24 h incubation. Here is the method: as §2
Data set [4] in a line: Body weight and death as indication of systemic toxicity. The settings on record: after intratumoral injection, during the experiment. Format: in vivo, Balb/c male mice. Here is the method:
as §1
We also monitored change in body weight during the experiment as an indication of systemic toxicity.

Take `COc1cccc2c1C(=O)c1c(O)c3c(c(O)c1C2=O)C[C@@](O)(C(=O)CO)C[C@@H]3O[C@H]1C[C@H](N)[C@H](O)[C@H](C)O1.Cl` [free Dox solution, Doxorubicin Hydrochloride]: the “Tumor size as % of that in the PBS control group” value with C26 tumor (after 10 days, intratumoral injection) was 42.45%. The “Tumor weight compared to the control group” value in the data set on C26 tumor (day 10) is listed as “significantly reduced”. The same molecule displayed a Tumor inhibition rate in the data set on C26 tumor (excised tumor weight on day 10, (Wc−Wt)/Wc) of 80.65%. In addition, the “Cytotoxicity (cell viability)” value in data set [1], in data set [2] and in data set [3] was “potent cytotoxicity” throughout. For the same molecule, the “Toxicity-induced death and body weight loss” value in data set [4] is “neither toxicity-induced death nor serious body weight loss”.
